Data set [1] can be described thus: Volume of distribution at steady state in Sprague-Dawley rat at 2 mg/kg, po or 1 mg/kg, iv administered as cassette dose measured after 24 hrs. The data set is classed as ADME, organism-based. The note with it: in vivo, read-out: Vdss.
Data set [2] is described as follows: Clearance in Sprague-Dawley rat at 2 mg/kg, po or 1 mg/kg, iv administered as cassette dose measured after 24 hrs relative to hepatic blood flow. The data set is classed as ADME, organism-based. The note with it: in vivo.
A short description of data set [3]: Permeability across apical to basolateral membrane in human Caco-2 cells at 50 uM incubated for 120 mins by LC-MS/MS analysis. Format: ADME, cell-based. The following applies: read-out: permeability.
A short description of data set [4]: Oral bioavailability in cynomolgus monkey at 2 mg/kg administered as cassette dose measured after 24 hrs. Format: ADME, organism-based, Macaca fascicularis. The note with it: in vivo.
The nature of data set [5]: AUC in cynomolgus monkey at 2 mg/kg, po or 1 mg/kg, iv administered as cassette dose measured after 24 hrs. The data set is classed as ADME, organism-based, Macaca fascicularis. On the set-up: time 24 hrs, dose 2 mg/kg. The note with it: in vivo.
Data set [6] in a line: Volume of distribution at steady state in cynomolgus monkey at 2 mg/kg, po or 1 mg/kg, iv administered as cassette dose measured after 24 hrs. The data set is classed as ADME, organism-based, Macaca fascicularis. The note with it: in vivo, read-out: Vdss.
Data set [7] can be described thus: Oral bioavailability in Sprague-Dawley rat at 2 mg/kg administered as cassette dose measured after 24 hrs. The data set is classed as ADME, organism-based. The following applies: in vivo.
Data set [8] in a line: AUC in Sprague-Dawley rat at 2 mg/kg, po or 1 mg/kg, iv administered as cassette dose measured after 24 hrs. The note with it: in vivo. Format: ADME, organism-based. On the set-up: time 24 hrs, dose 2 mg/kg.
A short description of data set [9]: Solubility of the compound in FaSSIF by HPLC analysis. The data set is classed as physicochemical.
Data set [10] can be described thus: Intrinsic clearance in human liver microsomes at 1 uM measured up to 30 mins in presence of NADPH by LC/MS analysis. The following applies: read-out: CLH (converted). Format: ADME, Microsome.
The nature of data set [11]: Inhibition of phosphorylated FGFR2alpha in human KATO III stomach cancer cell line spiked in human whole blood incubated for 4 hrs by ELISA. Format: tissue-based. A general note: ELISA stands for enzyme-linked immunosorbent assay.
Data set [12] can be described thus: Half life in Sprague-Dawley rat at 2 mg/kg, po or 1 mg/kg, iv administered as cassette dose measured after 24 hrs. The data set is classed as ADME, organism-based. The note with it: in vivo.
Data set [13] can be described thus: Half life in cynomolgus monkey at 2 mg/kg, po or 1 mg/kg, iv administered as cassette dose measured after 24 hrs. Format: ADME, organism-based, Macaca fascicularis. The note with it: in vivo.
Data set [14] in a line: Clearance in cynomolgus monkey at 2 mg/kg, po or 1 mg/kg, iv administered as cassette dose measured after 24 hrs relative to hepatic blood flow. The data set is classed as ADME, organism-based, Macaca fascicularis. The following applies: in vivo.
Data set [15] can be described thus: Antiproliferative activity against human B49 assessed as inhibition of cell proliferation incubated for 3 days by Cell Titer Aqueous96 one solution reagent assay. The following applies: KATO III, 72 h.
The target in data set [16] is Fibroblast growth factor receptor 1 (Homo sapiens, UniProt P11362). Briefly: Inhibition of human FGFR1 using biotinylated-EQEDEPEGDYFEWLE peptide as substrate incubated for 1 hr in presence of ATP by FRET assay.
Chain of Fibroblast growth factor receptor 1 (P11362 whole entry): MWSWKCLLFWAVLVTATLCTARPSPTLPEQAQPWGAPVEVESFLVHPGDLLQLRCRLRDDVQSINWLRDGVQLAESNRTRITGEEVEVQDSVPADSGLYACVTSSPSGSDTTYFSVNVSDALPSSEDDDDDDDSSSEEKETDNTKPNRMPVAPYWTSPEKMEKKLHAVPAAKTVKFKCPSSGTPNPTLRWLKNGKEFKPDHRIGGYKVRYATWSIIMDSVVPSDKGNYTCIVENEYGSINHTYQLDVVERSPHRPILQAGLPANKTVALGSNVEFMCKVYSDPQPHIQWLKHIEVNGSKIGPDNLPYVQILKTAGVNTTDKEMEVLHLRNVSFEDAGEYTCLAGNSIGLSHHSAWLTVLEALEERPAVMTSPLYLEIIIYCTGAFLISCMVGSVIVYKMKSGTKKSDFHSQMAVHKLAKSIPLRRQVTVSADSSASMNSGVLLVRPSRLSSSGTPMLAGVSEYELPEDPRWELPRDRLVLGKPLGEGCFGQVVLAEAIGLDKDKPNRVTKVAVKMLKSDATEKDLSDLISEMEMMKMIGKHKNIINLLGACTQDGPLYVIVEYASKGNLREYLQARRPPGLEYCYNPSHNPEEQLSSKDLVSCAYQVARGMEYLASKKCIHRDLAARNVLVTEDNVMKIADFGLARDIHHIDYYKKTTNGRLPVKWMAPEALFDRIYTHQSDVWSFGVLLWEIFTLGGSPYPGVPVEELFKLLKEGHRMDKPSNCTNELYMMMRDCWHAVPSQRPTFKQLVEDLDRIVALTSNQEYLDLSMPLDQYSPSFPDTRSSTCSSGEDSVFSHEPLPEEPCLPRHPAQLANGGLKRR
Data set [17] concerns the target Tyrosine-protein kinase JAK2 (Homo sapiens, UniProt O60674). Briefly: Inhibition of JAK2 (unknown origin).
Data set [18] has as its target Vascular endothelial growth factor receptor 2 (Homo sapiens, UniProt P35968). Briefly: Inhibition of human recombinant N-terminal His6-tagged VEGFR2 expressed in baculovirus infected Sf21insect cells using biotin-labeled EQEDEPEGDYFEWLE peptide as substrate incubated for 20 mins in presence of ATP by plate reader assay. Also noted: species or system Sf21.
Data set [19] concerns the target Fibroblast growth factor receptor 3 (Homo sapiens, UniProt P22607). Briefly: Inhibition of human FGFR3 using biotinylated-EQEDEPEGDYFEWLE peptide as substrate incubated for 1 hr in presence of ATP by FRET assay.
Data set [20] deals with Fibroblast growth factor receptor 2 (Homo sapiens, UniProt P21802). The data set can be described thus: Inhibition of human FGFR2 using biotinylated-EQEDEPEGDYFEWLE peptide as substrate incubated for 1 hr in presence of ATP by FRET assay.
Data set [21] concerns NCI-H1581. Briefly: Antiproliferative activity against human NCI-H1581 cells assessed as inhibition of cell proliferation incubated for 3 days by Cell Titer Aqueous96 one solution reagent assay. The note with it: NCI-H1581, 72 h.
The target in data set [22] is T1, CYP3A4 (Homo sapiens, UniProt P08684). The data set can be described thus: Time dependent inhibition of CYP3A4 in human liver microsomes at 10 uM using midazolam as substrate substrate preincubated for 30 mins in presence of NADPH followed by substrate addition and measured after 8 mins relative to control. Format: ADME. The note with it: probe midazolam, time 38 min, read-out: TDI. In general terms: Microsomes from liver hold many membrane-bound enzymes, among them those of drug oxidation.
T1 sequence (P08684 whole entry): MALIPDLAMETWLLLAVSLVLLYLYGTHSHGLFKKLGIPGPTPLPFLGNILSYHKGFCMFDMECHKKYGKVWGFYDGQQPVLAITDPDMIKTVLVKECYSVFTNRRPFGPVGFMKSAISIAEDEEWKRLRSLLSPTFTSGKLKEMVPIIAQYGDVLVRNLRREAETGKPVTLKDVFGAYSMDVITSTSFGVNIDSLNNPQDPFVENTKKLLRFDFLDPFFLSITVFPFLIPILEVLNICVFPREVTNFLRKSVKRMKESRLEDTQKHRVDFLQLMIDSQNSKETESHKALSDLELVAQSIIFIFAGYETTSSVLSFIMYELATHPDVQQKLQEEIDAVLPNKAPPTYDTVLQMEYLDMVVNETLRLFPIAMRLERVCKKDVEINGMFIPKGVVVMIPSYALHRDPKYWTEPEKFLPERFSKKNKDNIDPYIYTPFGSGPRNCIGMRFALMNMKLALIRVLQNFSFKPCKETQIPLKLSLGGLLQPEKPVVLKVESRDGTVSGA

The target in data set [23] is T1, CYP3A4. The data set can be described thus: Time dependent inhibition of CYP3A4 enzyme activity in human liver microsomes at 20 uM using midazolam as substrate substrate preincubated for 30 mins in presence of NADPH relative to control. The data set is classed as ADME. The following applies: probe midazolam, read-out: TDI.

By bioavailability is commonly meant dose-corrected exposure relative to a reference, in per cent. Broadly, the AUC is concentration integrated over time. Usually solubility stands for the dissolved amount per volume that the medium holds. The IC50 is the concentration that inhibits the measured activity by half. The half-life is the time in which the quantity being followed falls by half.

Values after ≈ are worked out from the molar mass of the structure shown.

Chain of Tyrosine-protein kinase JAK2 (O60674 whole entry): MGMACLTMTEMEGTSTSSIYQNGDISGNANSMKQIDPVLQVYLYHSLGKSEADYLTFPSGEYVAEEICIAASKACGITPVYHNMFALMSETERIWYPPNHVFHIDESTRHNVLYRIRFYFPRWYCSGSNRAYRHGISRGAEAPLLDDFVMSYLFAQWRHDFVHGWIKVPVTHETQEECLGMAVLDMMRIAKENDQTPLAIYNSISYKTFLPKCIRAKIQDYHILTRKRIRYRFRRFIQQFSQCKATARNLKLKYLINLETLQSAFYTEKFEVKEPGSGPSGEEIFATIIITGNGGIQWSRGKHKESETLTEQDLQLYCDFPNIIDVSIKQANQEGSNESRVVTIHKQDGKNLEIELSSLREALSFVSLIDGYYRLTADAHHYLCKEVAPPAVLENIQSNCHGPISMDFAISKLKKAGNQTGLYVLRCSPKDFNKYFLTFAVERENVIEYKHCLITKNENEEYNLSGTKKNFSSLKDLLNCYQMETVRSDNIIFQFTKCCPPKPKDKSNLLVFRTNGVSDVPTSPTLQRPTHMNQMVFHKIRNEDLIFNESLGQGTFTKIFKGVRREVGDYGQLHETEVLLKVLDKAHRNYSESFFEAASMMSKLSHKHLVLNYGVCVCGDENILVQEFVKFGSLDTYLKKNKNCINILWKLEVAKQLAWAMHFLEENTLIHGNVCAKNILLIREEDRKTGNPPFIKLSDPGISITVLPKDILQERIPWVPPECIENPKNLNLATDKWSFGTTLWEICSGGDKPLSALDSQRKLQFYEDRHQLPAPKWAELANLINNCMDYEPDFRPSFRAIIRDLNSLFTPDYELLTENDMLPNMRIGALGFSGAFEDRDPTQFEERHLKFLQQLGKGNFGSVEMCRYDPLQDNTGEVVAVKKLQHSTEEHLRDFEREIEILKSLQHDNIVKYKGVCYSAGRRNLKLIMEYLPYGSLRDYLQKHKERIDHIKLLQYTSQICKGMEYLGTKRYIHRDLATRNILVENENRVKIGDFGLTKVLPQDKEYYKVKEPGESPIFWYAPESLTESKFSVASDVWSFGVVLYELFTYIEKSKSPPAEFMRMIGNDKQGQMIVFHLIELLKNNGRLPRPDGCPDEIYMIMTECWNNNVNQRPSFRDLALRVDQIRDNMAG
Chain of Fibroblast growth factor receptor 3 (P22607 whole entry): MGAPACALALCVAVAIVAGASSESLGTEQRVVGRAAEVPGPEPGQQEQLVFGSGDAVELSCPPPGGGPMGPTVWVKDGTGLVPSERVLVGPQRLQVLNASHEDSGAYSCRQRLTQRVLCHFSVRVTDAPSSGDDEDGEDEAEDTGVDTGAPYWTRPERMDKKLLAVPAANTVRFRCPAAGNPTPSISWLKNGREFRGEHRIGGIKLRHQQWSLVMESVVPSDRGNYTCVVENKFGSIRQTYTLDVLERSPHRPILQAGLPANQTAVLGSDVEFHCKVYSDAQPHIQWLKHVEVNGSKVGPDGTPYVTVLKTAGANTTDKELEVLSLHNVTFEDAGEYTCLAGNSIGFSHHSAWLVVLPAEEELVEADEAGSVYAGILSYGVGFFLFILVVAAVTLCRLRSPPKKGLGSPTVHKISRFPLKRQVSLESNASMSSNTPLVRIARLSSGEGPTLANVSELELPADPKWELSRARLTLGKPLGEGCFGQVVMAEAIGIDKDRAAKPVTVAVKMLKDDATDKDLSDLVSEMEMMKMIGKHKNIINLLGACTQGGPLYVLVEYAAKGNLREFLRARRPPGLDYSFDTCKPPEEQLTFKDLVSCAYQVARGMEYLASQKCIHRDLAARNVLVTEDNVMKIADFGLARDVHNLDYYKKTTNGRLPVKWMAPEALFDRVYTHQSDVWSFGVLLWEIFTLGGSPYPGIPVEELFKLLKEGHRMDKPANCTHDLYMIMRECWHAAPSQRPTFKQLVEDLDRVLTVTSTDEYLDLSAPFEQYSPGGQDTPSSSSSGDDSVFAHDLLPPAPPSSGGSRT
Chain of Vascular endothelial growth factor receptor 2 (P35968 whole entry): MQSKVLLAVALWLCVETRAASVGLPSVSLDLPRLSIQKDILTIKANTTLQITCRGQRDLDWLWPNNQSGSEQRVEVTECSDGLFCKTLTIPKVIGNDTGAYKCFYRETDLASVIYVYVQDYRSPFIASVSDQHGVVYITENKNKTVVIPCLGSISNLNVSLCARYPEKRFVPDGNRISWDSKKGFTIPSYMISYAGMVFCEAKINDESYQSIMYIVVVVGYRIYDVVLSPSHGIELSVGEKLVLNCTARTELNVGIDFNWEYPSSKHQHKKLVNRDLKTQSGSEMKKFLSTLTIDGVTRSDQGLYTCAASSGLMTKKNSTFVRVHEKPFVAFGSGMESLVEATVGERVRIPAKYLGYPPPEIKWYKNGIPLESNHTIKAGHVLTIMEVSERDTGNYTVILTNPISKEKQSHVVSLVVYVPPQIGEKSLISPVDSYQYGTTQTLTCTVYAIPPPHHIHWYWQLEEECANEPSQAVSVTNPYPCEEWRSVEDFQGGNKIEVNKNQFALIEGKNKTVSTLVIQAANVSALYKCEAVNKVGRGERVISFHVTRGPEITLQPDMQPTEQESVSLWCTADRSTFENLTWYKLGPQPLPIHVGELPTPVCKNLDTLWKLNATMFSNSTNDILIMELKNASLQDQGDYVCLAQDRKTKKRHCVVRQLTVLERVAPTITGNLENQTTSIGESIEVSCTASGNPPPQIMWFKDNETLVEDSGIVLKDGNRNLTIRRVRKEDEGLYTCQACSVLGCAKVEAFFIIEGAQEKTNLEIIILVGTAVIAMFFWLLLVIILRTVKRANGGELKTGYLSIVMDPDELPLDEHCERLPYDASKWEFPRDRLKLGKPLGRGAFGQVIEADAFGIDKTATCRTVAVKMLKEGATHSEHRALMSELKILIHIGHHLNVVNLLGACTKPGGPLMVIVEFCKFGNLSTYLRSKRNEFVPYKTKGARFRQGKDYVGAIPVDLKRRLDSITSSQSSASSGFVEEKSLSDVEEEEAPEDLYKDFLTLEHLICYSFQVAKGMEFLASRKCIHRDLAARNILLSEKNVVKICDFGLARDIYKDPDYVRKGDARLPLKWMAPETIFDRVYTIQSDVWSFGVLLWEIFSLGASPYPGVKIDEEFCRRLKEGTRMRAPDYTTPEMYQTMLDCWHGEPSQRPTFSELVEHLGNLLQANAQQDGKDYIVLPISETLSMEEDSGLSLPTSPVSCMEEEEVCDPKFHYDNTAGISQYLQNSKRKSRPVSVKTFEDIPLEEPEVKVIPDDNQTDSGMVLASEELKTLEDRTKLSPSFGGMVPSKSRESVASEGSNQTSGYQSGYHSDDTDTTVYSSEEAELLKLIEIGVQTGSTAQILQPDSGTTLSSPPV

For `CCN1C(=O)N(c2c(F)c(OC)cc(OC)c2F)Cc2cnc3[nH]ncc3c21`, the figures for the Vd in data set [1] and in [6] were 0.47 L/kg and 0.25 L/kg, respectively. Further, the CL in data set [2] worked out at 20%; in data set [14], 12%. Further, the Papp A→B at 2 h, 50 µM in data set [3] was found to be 8.3 ×10⁻⁶ cm/s. Moreover, the values for the bioavailability in [4] and in [7] were 16% and greater than 100%, respectively. For the same compound, the AUC at 24 h came to 2.64 µM·h in data set [5] and 8 µM·h in data set [8]. This compound also came in with a solubility in [9] of 3 µg/mL (≈ 7.7 µM). Also, the CLint scaled at 1 µM in [10] is 15 mL/min/kg. The IC50 in data set [11] was determined as 18 nM. Further, the half-life in data set [12] is 0.7 h; in [13], 1.6 h.
Take `COc1cc(OC)cc(N2Cc3cnc4[nH]ccc4c3N(C)C2=O)c1`: the IC50 in [15] is 42 nM; in [16], 7.5 nM; in data set [17], greater than 10000 nM; in data set [18], 452 nM; in data set [19], 5.7 nM; in data set [20] it was 4.4 nM. For the same compound, the IC50 in data set [21] amounted to 40 nM.
Turning to `CCN1CCC(Cc2cc3c4c(cnc3[nH]2)CN(c2c(F)c(OC)cc(OC)c2F)C(=O)N4C)CC1`, the Vd in data set [1] was 0.42 L/kg. The inhibition at 8 min, 10 µM in data set [22] is 22%. The compound further yielded a CL in data set [2] of 51%. In data set [7], this compound registered a bioavailability of 7%. The AUC at 24 h in data set [8] is 0.166 µM·h. The amount in solution in [9] (solubility) came to 200 µg/mL (≈ 400 µM). Moreover, in data set [11], the IC50 was found to be 16 nM. In [12], this compound had a half-life of 0.7 h.
As to `COc1cc(OC)c(F)c(N2Cc3cnc4c(c3N(c3cccc(F)c3F)C2=O)CC(=O)N4)c1F`, the values for the IC50 in data set [15], in data set [11] and in data set [21] were 3.9 nM, 25 nM and 18 nM, respectively. Moreover, in [23], the inhibition at 30 mins, 20 µM is 30%. The same compound registered a solubility in [9] of 77 µg/mL (≈ 158 µM).
On to `COc1cc(OC)c(F)c(N2Cc3cnc4[nH]ccc4c3N(CCO)C2=O)c1F`, for which the Vd in data set [1] turned out to be 0.75 L/kg; in data set [6], 0.09 L/kg. The results for the CL in data set [2] and in data set [14] were 42% and 9%, respectively. Besides, in [3], the Papp A→B at 2 h, 50 µM was found to be 5.5 ×10⁻⁶ cm/s. Further, the bioavailability stood at 2% in [4] and 50% in data set [7]. For the same compound, the AUC at 24 h in [5] came to 0.504 µM·h; in [8], 1.8 µM·h. Besides, the solubility in data set [9] is 4.4 µg/mL (≈ 10.9 µM). For the same compound, in [10], the CLint scaled at 1 µM was 15 mL/min/kg. In addition, in data set [11], the IC50 was 8.2 nM. Besides, the half-life in data set [12] was 1.3 h; in [13], 1.1 h.

The values are drawn from ChEMBL document CHEMBL4808209 (J Med Chem, 2021).
